Results as given in patent US20070092464A1, “Betadine neutralizer” (priority 2005, published 2007).

What was measured:
[1] = cosmetic remover solution with parabens; cited from earlier work
[2] = use of the metabisulfite solution directly on human and animal patients (tolerability); format: in vivo; settings: 0.020 to 0.035 percent by weight in water, on skin
Source text: Additionally, the same solution is effective for removing stains elsewhere. The solutions of the present embodiments may be packaged for liquid application, such as in bottles, or sprays, or swabs.

[3] = Iodine stain removal, trial and error testing / actual usage
Source text: In use, the desired level of concentration may be intentionally varied to correspond to anticipated situations. For instance, products that are directed towards general cleanup, such as flooring, or equipment, or linens, may be made at the higher ranges so as to ensure quick and complete neutralization of the Iodine. The higher concentrations serve also to overcome any associated soil or other materials that may impede the action of the sodium metabisulfite on the Iodine stains.

SMILES | irritation or other adverse reactions in and about the eyes of users [1] | deleterious effects or irritation to the patient [2] | effectiveness in eliminating Iodine staining ([3]; 0.020 to 0.035 percent by weight in water) | effectiveness of Iodine stain removal compared to modest aqueous solutions of sodium metabisulfite ([3]; sodium thiosulfate in an alkaline detergent type matrix, actual usage)
O=S([O-])S(=O)(=O)[O-].[Na+].[Na+] [sodium metabisulfite] | did not contribute to any irritation or other adverse reactions | does not show any deleterious effects or irritation | highly effective | 
O=S([O-])([O-])=S.[Na+].[Na+] [sodium thiosulfate, reference compound] |  |  |  | weak
